Among the data in patent US20220184394A1, “STATE-DEPENDENT PUDENDAL NERVE STIMULATION FOR BLADDER CONTROL” (Duke University, priority 2017, published 2022) are Bladder capacity, Urgency sensation and Voiding efficiency values, retold here.

Test [1] has as its system bladder. The note with it: PGE2 given to healthy women; cited from earlier work.
Test [2] concerns bladder. As to the kind of experiment: Single-fill cystometry with intravesical PGE2 (model of OAB) in anesthetized rats. The conditions noted are these: intravesical 100 μM PGE2 vs saline control. In kind it is in vivo, Female Wistar rats. Here is the method: Female Wistar rats (n=18) weighing between 237 and 296 g were anesthetized with urethane (1.2 g/kg SC, supplemented as necessary). Body temperature was monitored using an esophageal temperature probe and maintained at 36-38° C. with a water blanket. Heart rate and arterial blood oxygen saturation levels were monitored using a pulse oximeter (Nonin Medical Inc., 2500 A VET).
For cystometrogram (CMG) measurements, the bladder was exposed via a midline abdominal incision. A PE-90 catheter, the tip of which was heated to create a collar, was inserted into the bladder lumen through a small incision in the apex of the bladder dome and secured with a 6-0 silk suture. The abdominal wall was closed in layers with 3-0 silk suture. […]
The bladder was filled continuously with physiological saline at room temperature (2-8 ml/hr) using an infusion pump with an open urethra for at least 45 minutes during post-surgical recovery. The bladder was subsequently emptied and cystometrograms (CMGs) recorded. […] Voided and residual volumes were recorded and used to calculate bladder capacity and voiding efficiency. […] For these trials, voiding efficiency was calculated as the first voided volume divided by the bladder capacity, and “reflex” voiding efficiency was calculated as the sum of the two voided volumes divided by the bladder capacity. […]

Test [3] deals with bladder. The note with it: intravesical PGE2, rats; cited from earlier work.

The structures appear in SMILES notation. “Also recorded” adds a separate entry of the source. Read-outs that look alike come from different tables or passages of the source.

For the compound `CCCCC[C@H](O)/C=C/[C@H]1[C@H](O)CC(=O)[C@@H]1C/C=C\CCCC(=O)O` [PGE2, Prostaglandin E2], the Bladder capacity result in the test on bladder [1] is on record as “reduced bladder capacities”; in the test with bladder [2] (urethane-anesthetized, n=9, p=0.02), “consistently reduced bladder capacity; also recorded: decreased bladder capacity; also recorded: Bladder capacity decreased”; in the test on bladder [3], “reduces bladder capacity”. Also, in the test on bladder [1], the Urgency sensation result is “a strong urgency sensation”. Further, in the test with bladder [2] (n=9, p<0.001), the Voiding efficiency result is reported as “increased voiding efficiency; also recorded: Voiding efficiency increased”.
